Test results reported in article PMC12763877 (Journal of Experimental & Clinical Cancer Research : CR, 2025).

Assays:
[1] = system: zebrafish retinal vasculature; experiment: Zebrafish hypoxia-induced retinal vascular abnormality model; format: in vivo, zebrafish (Danio rerio); settings: CoCl2 5 mM + GS401 2.5 ug/ml; compounds at concentrations < LD50 (A-2 1 µM); imaged at 5 dpf
Method: Transgenic zebrafish Tg(flk: EGFP) were obtained from the China Zebrafish Resource Center and maintained at 28 ± 1 °C under a 14-hour light/10-hour dark cycle. […] Survival rates were recorded to calculate the median lethal concentration (LC₅₀). For the retinal angiogenesis assay, embryos at 1 day post fertilization (dpf) were transferred to E3 medium containing 5 mM CoCl₂·6 H₂O and 2.5 µg/mL GS4012 to induce hypoxia and abnormal vessel formation. At 3 dpf, test compounds were added and incubation continued until 5 dpf. Blank, model, and vehicle (≤ 0.1% DMSO) controls were included, with at least three replicates per group (n = 10–15 embryos). At 5 dpf, retinal vasculature was imaged using fluorescence microscopy and analyzed for branching number, vessel length, and density using ImageJ. Data are presented as mean ± standard deviation (SD) and analyzed using one-way ANOVA followed by Tukey’s post hoc test, with p < 0.05 considered statistically significant.
Furthermore, we established a hypoxia-induced vascular dysregulation model with CoCl2 (5mM) and a VEGF inductive agent GS401 (2.5 ug/ml) in zebrafish embryos to assess the capacity of candidate compounds to regulate vascular normalization. Following Zebrafish toxicity profiling, 8 candidate compounds were administered at optimized concentrations (< LD50) to treat the zebrafish vascular abnormality model separately. […]

APLNR [2] = target: T1, APLNR (Homo sapiens, UniProt P35414); experiment: Surface plasmon resonance (Biacore T200); settings: APLNR on CM5 chip, 0.390625-12.5 µM, 1:1 kinetic binding model; read-out: equilibrium dissociation constant (KD)
T1 sequence (P35414 1-380): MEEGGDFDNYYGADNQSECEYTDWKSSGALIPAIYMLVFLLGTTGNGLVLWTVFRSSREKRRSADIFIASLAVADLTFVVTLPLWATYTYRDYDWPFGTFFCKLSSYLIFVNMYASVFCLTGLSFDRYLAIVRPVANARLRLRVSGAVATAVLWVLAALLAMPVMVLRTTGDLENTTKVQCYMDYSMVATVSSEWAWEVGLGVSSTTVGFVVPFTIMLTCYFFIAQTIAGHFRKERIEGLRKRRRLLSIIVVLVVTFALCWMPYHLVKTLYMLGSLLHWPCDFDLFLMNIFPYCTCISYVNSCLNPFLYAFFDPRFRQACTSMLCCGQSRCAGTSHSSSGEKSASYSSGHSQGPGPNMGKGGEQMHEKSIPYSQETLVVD
Method: SPR, which is a reliable method for analyzing real-time biomolecular interactions without labeling, was utilized to identify the binding affinity between APLNR and Candesartan. Candesartan is diluted with sterile phosphate-buffered saline (PBS). The APLNR protein is immobilized on a CM5 sensor chip via coupling, and then different concentrations of Candesartan (12.5 µM, 6.25 µM, 3.125 µM, 1.5625 µM, 0.78125 µM, 0.390625 µM) are injected. The Biacore T200 system can continuously and real-time monitor the changes in resonance units (RU), thereby obtaining the binding situation of candesartan with APLNR. The entire sensorgram is fitted using a 1:1 kinetic binding model, and the equilibrium dissociation constant (KD) is calculated.
To further analyze the binding capacity of candesartan to APLNR, we conducted surface plasmon resonance (SPR) analysis to determine the binding affinity between candesartan and APLNR. […] This gradual increase in RU values indicates specific binding of candesartan to APLNR.

[3] = system: 4T1 cells (orthotopic breast cancer); experiment: Anti-tumor efficacy in breast cancer mouse model, alone or with Sunitinib; format: in vivo, BALB/c mice
Method: Female BABL/c mice aged 6–8 weeks were purchased from Beijing SPF Biological Co., LTD. 4T1 cells in good growth condition were collected and injected in situ into the mammary fat pad of female BALB/c mice at a density of 2 × 10⁶ cells per mouse. […] When the tumor size increased to approximately 1200 mm^3, we will conduct further tests. It should be pointed out that, when studying vascular leakage, DyLight™ 649-labeled tomato lectin (Tomoto-lectin) was injected intravenously into the mice via the tail vein two hours prior to tissue collection. The tumor tissues were then excised. Half of each tumor was fixed in 4% paraformaldehyde and subsequently processed for paraffin embedding and immunofluorescence staining. The remaining half was immediately frozen in liquid nitrogen and prepared as frozen sections for further experimental procedures.
Paraffin-embedded mouse tumor tissue sections were deparaffinized, rehydrated, and fixed with 4% paraformaldehyde at room temperature for 20 min. After washing with PBS, the sections were permeabilized with 1% Triton X-100 (Solarbio, China) for 15 min at room temperature, followed by blocking with 5% bovine serum albumin (BSA) in PBS containing 0.1% Triton X-100 for 1 h at room temperature to reduce nonspecific binding. […] After washing, the sections were further incubated overnight at 4 °C with primary antibodies against dsDNA and HSP60. The next day, the sections were incubated with Alexa Fluor 647-conjugated goat anti-rabbit IgG (H + L) secondary antibody (catalog no. A0468, Beyotime Biotechnology, China) for 1 h at room temperature in the dark. Nuclear staining was performed using DAPI (catalog no. C0060, Solarbio, China).
To observe metastasis, tissues were harvested and fixed in Bouin’s solution (saturated picric acid 75 ml + 40% formaldehyde 25 ml + glacial acetic acid 5 ml). After fixation, tissues were stained with picric acid to visualize metastatic nodules, which appeared as distinct lesions against the background tissue.

APLNR [4] = target: T1, APLNR; experiment: FLIPR Calcium 6 assay, inhibition of Apelin-13-induced calcium flux; format: cell-based; set-up: expressed in transfected cells; host or cells: HEK293
Method: HEK293 cells stably expressing APLNR were seeded in 96-well plates (20,000 cells/well) and loaded with Calcium 6 dye (Molecular Devices) for 2 h. Candidate compounds dissolved in DMSO were applied at 2 µM for 15 min, followed by stimulation with the endogenous agonist Apelin-13 (100 nM). Real-time intracellular calcium flux was quantified using FLIPR Tetra® System (470–495 nm excitation/515–575 nm emission).
These candidates were further evaluated for APLNR inhibitory activity at the concentration of 2 µM by using a FLIPR® Calcium 6 Assay Kit, which quantifies ligand-induced intracellular calcium flux.

[5] = candesartan 10 mg/kg, Sunitinib 40 mg/kg

CCOc1nc2cccc(C(=O)O)c2n1Cc1ccc(-c2ccccc2-c2nnn[nH]2)cc1 [Compound A-2, Candesartan]
Effect on hypoxia-induced retinal vascular pathology (ectopic branching, vascular architecture) [1]: markedly attenuated these pathological features | Kd (APLNR [2]): 1720 nM | Tumor growth ([3]; candesartan 10 mg/kg once daily, Sunitinib 40 mg/kg every two days, intragastric, 14 days, vs vehicle): significantly reduce the tumor growth | Coverage of pericytes on endothelial cells in tumors (CD31/α-SMA) [3, 5]: significantly increased | Lung surface nodules / pulmonary metastasis [3, 5]: inhibited pulmonary metastasis of breast cancer | IC50 (APLNR [4]; FLIPR system, read-out: IC50, inhibition of Apelin-13-mediated calcium mobilization): 1210 nM | inhibition at 2 µM (APLNR [4]; compound 2 µM, 15 min, then Apelin-13 100 nM, HEK293 cells stably expressing APLNR, read-out: Inhibition rate (2 μM, %)): 72.3%
